Measured values published in paper PMC10600239, “Selective MCL-1 inhibitor ABBV-467 is efficacious in tumor models but is associated with cardiac troponin increases in patients” (Communications Medicine, 2023).
Several values for one entry are separate records, joined by “and”; a condition that tells them apart may be missing. Equal entries are not always repeated.

System: AMO-1 xenografts
Test: AMO-1 xenograft efficacy (tumor volume, body weight)
Format: in vivo, mouse
Design: key to Anti-tumor Activity vs. AMO-1 (DSMZ), Median / Anti-tumor Activity vs. AMO-1 (DSMZ), individual animal / Anti-tumor Activity vs. AMO-1 (DSMZ), Mean: tumor volume in mm^3 (length × width^2/2)
Procedure: All animal studies were conducted in accordance with the guidelines approved by the Institutional Animal Care and Use Committees of AbbVie. The research protocol was approved by In Vivo Pharmacology at AbbVie prior to study initiation but was not publicly registered or disclosed. Female C.B-17 SCID-beige mice (AMO-1, OPM-2, NCI-H929, and OCI-AML2 xenografts) and female NSG mice (MV4-11-Red.Fluc systemic) were purchased from Charles River Laboratories (Wilmington, MA). Animals were housed in a light cycle-controlled room with HEPA filtration at 22 °C. Animals had nesting and climbing cage topper as the primary environmental enrichment. Animals were inoculated subcutaneously in the right flank with 5 × 10^6 (AMO-1, OPM-2, NCI-H929, and OCI-AML2) or intravenous (IV) with 5 × 10^6 (MV4-11-Red.Fluc). The inoculation volume (0.2 mL) comprised a 50:50 mixture of cells in growth media and Matrigel (BD Biosciences) for subcutaneous injections and 100% phosphate-buffered saline for IV administration. All cell lines used in this publication were authenticated using IDEXX for STR profiling as well as their IMPACT and human IMPACT panels for pathogen screening. Electronic calipers were used to measure the length and width of each tumor 2 to 3 times per week. Tumor volume was estimated by applying the following equation: volume = length × width^2/2. All groups remained blinded during measurements and dosing; only veterinary staff were aware of group identity. When tumors reached approximately 200 mm^3, mice were randomized by match and distributed into treatment and control groups. All xenograft trials were conducted using 5 to 10 mice per group, and all mice were ear tagged and monitored individually throughout the studies. […] Tumor burden in the systemic MV4-11-Red.Fluc experiment was measured using an IVIS® spectrum from PerkinElmer by taking the total photon flux of the entire dorsal side of an individual mouse. […] A background control mouse that was tumor naive but received D-Luciferin was placed in the upper left corner of each image. The total flux from this animal was subtracted from the total flux of each animal present in the image.
For in vivo studies, maximal tumor growth inhibition (TGI) was calculated as the greatest treatment response using the following equation: Maximal TGI = (1 − mean tumor volume of the treated group/mean tumor volume of the vehicle control group) × 100. The tumor growth delay (TGD) percentage was determined as the percentage increase of the median time period for the treatment group to reach an arbitrary tumor volume of 1000 mm^3 relative to the vehicle control group. […] A power analysis was conducted using historical data to determine the number of animals required to yield significance of 0.05 at a 30% difference. […] Data from experiments in vivo were analyzed using the student’s t-test for TGI values and the Mann–Whitney U test for TGD using Excel and GraphPad Prism. Fisher’s exact test was used to probe significance of differences in response frequency.

[1] = 6.25 mg/kg IV QDx1, Day 13 (day before dosing begins)
[2] = 6.25 mg/kg Q7Dx2 IV, SCID-beige female mice, Day 21
[3] = 6.25 mg/kg Q7Dx2 IV, SCID-beige female mice, Day 24

SMILES: Cc1c(Cl)c2c(Cl)c(C)c1-c1c(-c3ccc(F)cc3)sc3ncnc(c13)O[C@@H](C(=O)O)Cc1cc(ccc1OCc1ccnc(-c3ccc(OC[C@H]4COCCO4)cc3)n1)OC[C@@H](CN1CCN(C)CC1)O2 [Compound A-1747745.0]
- Anti-tumor Activity vs. AMO-1 (DSMZ), Median (6.25 mg/kg IV QDx1, day 23): 225.89
- Group Mean, Body Weight (6.25 mg/kg IV QDx1, day 23): 22.00 g
- Anti-tumor Activity vs. AMO-1 (DSMZ), Mean (6.25 mg/kg IV QDx1, day 26): 454.97
- Anti-tumor Activity vs. AMO-1 (DSMZ), Median (6.25 mg/kg IV QDx1, day 26): 392.97
- Anti-tumor Activity vs. AMO-1 (DSMZ), Mean (6.25 mg/kg IV QDx1, day 28): 690.68
- Anti-tumor Activity vs. AMO-1 (DSMZ), Median (6.25 mg/kg IV QDx1, day 28): 578.26
- Group Mean, Body Weight (6.25 mg/kg IV QDx1, day 28): 22.25 g
- Anti-tumor Activity vs. AMO-1 (DSMZ), Mean (6.25 mg/kg IV QDx1, day 30): 882.20
- Anti-tumor Activity vs. AMO-1 (DSMZ), Median (6.25 mg/kg IV QDx1, day 30): 791.67
- Anti-tumor Activity vs. AMO-1 (DSMZ), Mean (6.25 mg/kg IV QDx1, day 34): 1592.98
- Anti-tumor Activity vs. AMO-1 (DSMZ), Median (6.25 mg/kg IV QDx1, day 34): 1465.20
- Anti-tumor Activity vs. AMO-1 (DSMZ), Mean (6.25 mg/kg IV QDx1, day 36): 1754.60
- Anti-tumor Activity vs. AMO-1 (DSMZ), Median (6.25 mg/kg IV QDx1, day 36): 1695.89
- Xenograft AMO-1 (DSMZ) tumor volume Day 13, Mean [1]: 216.25 mm³
- Xenograft AMO-1 (DSMZ) tumor volume Day 13, Median [1]: 216.39 mm³
- % T/C (mean) [1]: 100.07%
- % T/C (median) [1]: 100.10%
- Xenograft AMO-1 (DSMZ) (mm³) Day 13, individual animals (6.25 mg/kg IV QDx1, SCID-beige female mice, Day 13 (randomization, day before dosing begins)): 219 mm³ and 211 mm³ and 216 mm³ and 221 mm³ and 217 mm³ and 214 mm³ and 224 mm³ and 208 mm³
- Mortality Observation Day 32 (6.25 mg/kg Q7Dx2 IV, AMO-1 (DSMZ) xenograft, SCID-beige female mice, per animal): EUTV (6×) and GRPX
- % T/C (mean) (6.25 mg/kg Q7Dx2 IV, Day 13): 101.00%
- % T/C (median) (6.25 mg/kg Q7Dx2 IV, Day 13): 98.08%
- % T/C (mean) (6.25 mg/kg Q7Dx2 IV, Day 19): 30.07%
- % T/C (median) (6.25 mg/kg Q7Dx2 IV, Day 19): 31.46%
- % T/C (mean) (6.25 mg/kg Q7Dx2 IV, Day 21): 29.54%
- % T/C (median) (6.25 mg/kg Q7Dx2 IV, Day 21): 27.04%
- % T/C (mean) (6.25 mg/kg Q7Dx2 IV, Day 24): 22.09%
- % T/C (median) (6.25 mg/kg Q7Dx2 IV, Day 24): 20.32%
- % T/C (mean) (6.25 mg/kg Q7Dx2 IV, Day 26): 21.67%
- % T/C (median) (6.25 mg/kg Q7Dx2 IV, Day 26): 14.15%
- % T/C (mean) (6.25 mg/kg Q7Dx2 IV, Day 28): 23.23%
- % T/C (median) (6.25 mg/kg Q7Dx2 IV, Day 28): 13.94%
- Xenograft AMO-1 (DSMZ) Day 19 Mean (6.25 mg/kg Q7Dx2 IV, SCID-beige female mice, Day 19, group mean tumor volume): 118.80 mm³
- Xenograft AMO-1 (DSMZ) Day 19 Median (6.25 mg/kg Q7Dx2 IV, SCID-beige female mice, Day 19, group median tumor volume): 115.27 mm³
- Xenograft AMO-1 (DSMZ) (mm³) Day 19, individual animals (6.25 mg/kg Q7Dx2 IV, SCID-beige female mice, Day 19, individual tumor volumes): 119 mm³ and 199 mm³ and 123 mm³ and 80 mm³ and 92 mm³ and 115 mm³ and 104 mm³
- Xenograft AMO-1 (DSMZ) Day 21, Mean [2]: 190.88 mm³
- Xenograft AMO-1 (DSMZ) Day 21, Median [2]: 163.99 mm³
- Xenograft AMO-1 (DSMZ) tumor volume Day 21, individual animals [2]: 209 mm³ and 370 mm³ and 179 mm³ and 144 mm³ and 116 mm³ and 164 mm³ and 155 mm³
- Xenograft AMO-1 (DSMZ) (mm³) Day 24, individual animals [3]: 184 mm³ and 451 mm³ and 200 mm³ and 190 mm³ and 174 mm³ and 138 mm³ and 133 mm³
- Xenograft AMO-1 (DSMZ) tumor volume Day 24, Mean [3]: 210.06 mm³
